# Patent publication US11548871B2, “Triazole carbamate pyridyl sulfonamides as LPA receptor antagonists and uses thereof” (Gilead Sciences, Inc., priority 2019, dated 2023)
# Molecular target: human LPAR1 (Homo sapiens, UniProt Q92633)
# Assay: LPAR1 intracellular calcium mobilization assay (antagonist mode)
# Method: In vitro LPAR1 activity was measured in an intracellular calcium mobilization assay.
# Prior to testing cell media were aspirated from the cells and replaced with 20 μL Calcium Dye Loading Buffer (DiscoverX Calcium NoWash^PLUS Assay Kit cat #90-0091) and 2.5 mM Probenecid (Sigma Aldrich cat #P8761, prepared fresh) in HBSS/20 mM Hepes for 60 min at 37° C.
# For agonist dose curves, cells were removed from the incubator after dye loading and 10 μL HBSS/20 mM Hepes including 3× vehicle was added. Cells were incubated for 30 min at room temperature in the dark to equilibrate plate temperatures. An intermediate LPA dilution series was prepared in assay buffer to generate 4× stock. Calcium mobilization was monitored on a FLIPR Tetra (MDS, San Jose, Calif.) for 2 min and 10 μL 4×LPA in HBSS/20 mM Hepes was added to the cells 5 s into the assay.
# An intermediate antagonist dilution series was prepared as 3× samples in assay buffer. After dye loading, cells were removed from the incubator and 10 μL 3× antagonist was added. Cells were incubated for 30 min at room temperature in the dark to equilibrate plate temperatures. The final vehicle (DMSO) concentration was 1%. Compound antagonist activities was measured on a FLIPR Tetra. Calcium mobilization was monitored for 2 min and 10 μL EC80 agonist in HBSS/20 mM Hepes was added to the cells 5 s into the assay. Compound activity was analyzed using CBIS data analysis suite (ChemInnovation Software, San Diego, Calif.).
# Chain of human LPAR1 (Q92633 whole entry): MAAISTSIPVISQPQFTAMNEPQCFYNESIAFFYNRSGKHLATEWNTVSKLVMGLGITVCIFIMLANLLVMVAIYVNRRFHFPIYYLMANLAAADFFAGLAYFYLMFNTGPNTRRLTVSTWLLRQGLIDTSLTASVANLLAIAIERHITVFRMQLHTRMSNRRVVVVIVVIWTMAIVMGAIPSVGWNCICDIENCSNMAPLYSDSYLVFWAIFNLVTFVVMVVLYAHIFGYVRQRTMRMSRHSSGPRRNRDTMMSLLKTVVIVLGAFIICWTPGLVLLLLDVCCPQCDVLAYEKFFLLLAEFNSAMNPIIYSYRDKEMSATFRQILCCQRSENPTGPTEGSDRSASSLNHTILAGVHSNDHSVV
row,EC50,Structure (SMILES)
1,0.171 µM,"CCCC[C@@H](C)OC(=O)Nc1c(-c2ccc(NS(C)(=O)=O)c(C)n2)nnn1C [Compound 28, (R)-hexan-2-yl (1-methyl-4-(6-methyl-5-(methylsulfonamido)pyridin-2-yl)-1H-1,2,3-triazol-5-yl)carbamate]"
2,0.187 µM,"Cc1nc(-c2nnn(C)c2NC(=O)O[C@H](C)c2cc(Br)cnc2F)ccc1NS(C)(=O)=O [Compound 125, (R)-1-(5-bromo-2-fluoropyridin-3-yl)ethyl (1-methyl-4-(6-methyl-5-(methylsulfonamido)pyridin-2-yl)-1H-1,2,3-triazol-5-yl)carbamate]"
3,0.387 µM,"Cc1nc(-c2nnn(C)c2NC(=O)O[C@@H](c2ccccc2F)C(F)(F)F)ccc1NS(C)(=O)=O [Compound 97, (S)-2,2,2-trifluoro-1-(2-fluorophenyl)ethyl(1-methyl-4-(6-methyl-5-(methylsulfonamido)pyridin-2-yl)-1H-1,2,3-triazol-5-yl)carbamate]"
4,0.0187 µM,"Cc1nc(-c2nnn(C)c2NC(=O)O[C@H](CF)c2cccc(Cl)c2)ccc1NS(C)(=O)=O [Compound 25, (S)-1-(3-chlorophenyl)-2-fluoroethyl (1-methyl-4-(6-methyl-5-(methylsulfonamido)pyridin-2-yl)-1H-1,2,3-triazol-5-yl)carbamate]"
5,0.327 µM,"COCc1ccccc1[C@@H](C)OC(=O)Nc1c(-c2ccc(NS(C)(=O)=O)c(C)n2)nnn1C [Compound 35, (R)-1-(2-(methoxymethyl)phenyl)ethyl (1-methyl-4-(6-methyl-5-(methylsulfonamido)pyridin-2-yl)-1H-1,2,3-triazol-5-yl)carbamate]"
6,0.117 µM,"Cn1nnc(-c2ccc(NS(C)(=O)=O)cn2)c1NC(=O)OCc1cccc(Cl)c1 [Compound 20, 3-chlorobenzyl (1-methyl-4-(5-(methylsulfonamido)pyridin-2-yl)-1H-1,2,3-triazol-5-yl)carbamate]"
7,1.59 µM,"Cc1nc(-c2nnn(C)c2NC(=O)O[C@H](C)c2cncnc2C)ccc1NS(C)(=O)=O [Compound 70, (R)-1-(4-methylpyrimidin-5-yl)ethyl (1-methyl-4-(6-methyl-5-(methylsulfonamido)pyridin-2-yl)-1H-1,2,3-triazol-5-yl)carbamate]"
8,0.0578 µM,"C[C@@H](OC(=O)Nc1c(-c2ccc(NS(C)(=O)=O)cn2)nnn1C)c1cnsc1Cl [Compound 118, (R)-1-(5-chloroisothiazol-4-yl)ethyl (1-methyl-4-(5-(methylsulfonamido)pyridin-2-yl)-1H-1,2,3-triazol-5-yl)carbamate]"
9,0.0502 µM,"C[C@@H](OC(=O)Nc1c(-c2ccc(NS(C)(=O)=O)cn2)nnn1C)c1csnc1Cl [Compound 119, (R)-1-(3-chloroisothiazol-4-yl)ethyl (1-methyl-4-(5-(methylsulfonamido)pyridin-2-yl)-1H-1,2,3-triazol-5-yl)carbamate]"
10,0.73 µM,"Cc1nc(-c2nnn(C)c2NC(=O)O[C@H](CC#N)c2ccccc2)ccc1NS(C)(=O)=O [Compound 50, (R)-2-cyano-1-phenylethyl (1-methyl-4-(6-methyl-5-(methylsulfonamido)pyridin-2-yl)-1H-1,2,3-triazol-5-yl)carbamate]"
11,0.58 µM,"COc1nc(-c2nnn(C)c2NC(=O)O[C@H](C)c2cccnc2Cl)ccc1NS(C)(=O)=O [Compound 146, (R)-1-(2-chloropyridin-3-yl)ethyl (4-(6-methoxy-5-(methylsulfonamido)pyridin-2-yl)-1-methyl-1H-1,2,3-triazol-5-yl)carbamate]"
12,0.265 µM,"Cc1nc(-c2nnn(C)c2NC(=O)O[C@H](C)c2cccnc2F)ccc1NS(C)(=O)=O [Compound 128, (R)-1-(2-fluoropyridin-3-yl)ethyl (1-methyl-4-(6-methyl-5-(methylsulfonamido)pyridin-2-yl)-1H-1,2,3-triazol-5-yl)carbamate]"
13,0.0087 µM,"Cn1nnc(-c2ccc(NS(C)(=O)=O)cn2)c1NC(=O)O[C@H](CF)c1cccc(F)c1 [Compound 22, (S)-2-fluoro-1-(3-fluorophenyl)ethyl (1-methyl-4-(5-(methylsulfonamido)pyridin-2-yl)-1H-1,2,3-triazol-5-yl)carbamate]"
14,0.162 µM,"Cc1nc(-c2nnn(C)c2NC(=O)OC(C2CCCCC2)C(F)(F)F)ccc1NS(C)(=O)=O (stereo not drawn) [Compound 48, 1-cyclohexyl-2,2,2-trifluoroethyl (1-methyl-4-(6-methyl-5-(methylsulfonamido)pyridin-2-yl)-1H-1,2,3-triazol-5-yl)carbamate]"
15,0.106 µM,"Cc1ncc(F)cc1[C@@H](C)OC(=O)Nc1c(-c2ccc(NS(C)(=O)=O)cn2)nnn1C [Compound 112, (R)-1-(5-fluoro-2-methylpyridin-3-yl)ethyl (1-methyl-4-(5-(methylsulfonamido)pyridin-2-yl)-1H-1,2,3-triazol-5-yl)carbamate]"
16,0.0861 µM,"Cc1nc(-c2nnn(C)c2NC(=O)O[C@H](C)c2cc(F)ncc2Cl)ccc1NS(C)(=O)=O [Compound 123, (R)-1-(5-chloro-2-fluoropyridin-4-yl)ethyl (1-methyl-4-(6-methyl-5-(methylsulfonamido)pyridin-2-yl)-1H-1,2,3-triazol-5-yl)carbamate]"
17,0.0167 µM,"Cc1nc(-c2nnn(C)c2NC(=O)O[C@H](C)c2cc(Cl)sc2Cl)ccc1NS(C)(=O)=O [Compound 52, (R)-1-(2,5-dichlorothiophen-3-yl)ethyl (1-methyl-4-(6-methyl-5-(methylsulfonamido)pyridin-2-yl)-1H-1,2,3-triazol-5-yl)carbamate]"

row,EC50,Structure (SMILES)
1,1.08 µM,"Cc1nc(-c2nnn(C)c2NC(=O)OC(C)c2cccnc2C(F)F)ccc1NS(C)(=O)=O (stereo not drawn) [Compound 124, 1-(2-(difluoromethyl)pyridin-3-yl)ethyl (1-methyl-4-(6-methyl-5-(methylsulfonamido)pyridin-2-yl)-1H-1,2,3-triazol-5-yl)carbamate]"
2,0.323 µM,"COc1nc(-c2nnn(C)c2NC(=O)O[C@H](C)c2ccccc2)ccc1NS(C)(=O)=O [Compound 1, (R)-1-phenylethyl (4-(6-methoxy-5-(methylsulfonamido)pyridin-2-yl)-1-methyl-1H-1,2,3-triazol-5-yl)carbamate]"
3,0.193 µM,"Cc1nc(-c2nnn(C)c2NC(=O)OC(C)c2cc(Cl)cnc2Cl)ccc1NS(C)(=O)=O (stereo not drawn) [Compound 84, 1-(2,5-dichloropyridin-3-yl)ethyl (1-methyl-4-(6-methyl-5-(methylsulfonamido)pyridin-2-yl)-1H-1,2,3-triazol-5-yl)carbamate]"
4,2.74 µM,Cc1nc(-c2nnn(C)c2NC(=O)N[C@H](C)c2ccccc2)ccc1NS(C)(=O)=O [Compound 64]
5,0.675 µM,"Cc1nc(-c2nnn(C)c2NC(=O)OC(C)c2ncccc2Cl)ccc1NS(C)(=O)=O (stereo not drawn) [Compound 131, 1-(3-chloropyridin-2-yl)ethyl (1-methyl-4-(6-methyl-5-(methylsulfonamido)pyridin-2-yl)-1H-1,2,3-triazol-5-yl)carbamate]"
6,0.218 µM,"Cc1nc(-c2nnn(C)c2NC(=O)O[C@H](C)c2cccnc2Cl)ccc1NS(C)(=O)=O [Compound 68, (R)-1-(2-chloropyridin-3-yl)ethyl (1-methyl-4-(6-methyl-5-(methylsulfonamido)pyridin-2-yl)-1H-1,2,3-triazol-5-yl)carbamate]"
7,1.22 µM,"CCCCCCOC(=O)Nc1c(-c2ccc(NS(C)(=O)=O)c(C)n2)nnn1C [Compound 31, hexyl (1-methyl-4-(6-methyl-5-(methylsulfonamido)pyridin-2-yl)-1H-1,2,3-triazol-5-yl)carbamate]"
8,1.69 µM,"Cc1nc(-c2nnn(C)c2NC(=O)OCCC(C)(C)C)ccc1NS(C)(=O)=O [Compound 32, 3,3-dimethylbutyl (1-methyl-4-(6-methyl-5-(methylsulfonamido)pyridin-2-yl)-1H-1,2,3-triazol-5-yl)carbamate]"
9,10 µM,"COC1CN(S(=O)(=O)Nc2ccc(-c3nnn(C)c3NC(=O)O[C@H](C)c3cccc(F)c3)nc2C)C1 [Compound 108, (R)-1-(3-fluoro-phenyl)ethyl (4-(5-((3-methoxy-azetidine)-1-sulfonamido)-6-methylpyridin-2-yl)-1-methyl-1H-1,2,3-triazol-5-yl)carbamate]"
10,0.0895 µM,"Cc1nc(-c2nnn(C)c2NC(=O)OCc2cccc(Cl)c2)ccc1NS(C)(=O)=O [Compound 39, 3-chlorobenzyl (1-methyl-4-(6-methyl-5-(methylsulfonamido)pyridin-2-yl)-1H-1,2,3-triazol-5-yl)carbamate]"
11,0.705 µM,"Cc1nc(-c2nnn(C)c2NC(=O)O[C@H](C)c2cccc(F)c2)ccc1NS(=O)(=O)C1COC1 [Compound 109, (R)-1-(3-fluoro-phenyl)ethyl (1-methyl-4-(6-methyl-5-(oxetane-3-sulfonamido)pyridin-2-yl)-1H-1,2,3-triazol-5-yl)carbamate]"
12,0.493 µM,"COCc1nc(-c2nnn(C)c2NC(=O)O[C@H](C)c2cccnc2Cl)ccc1NS(C)(=O)=O [Compound 145, (R)-1-(2-chloropyridin-3-yl)ethyl (4-(6-(methoxymethyl)-5-(methylsulfonamido)pyridin-2-yl)-1-methyl-1H-1,2,3-triazol-5-yl)carbamate]"
13,0.305 µM,"Cc1nc(-c2nnn(C)c2NC(=O)O[C@H](C)c2scnc2Cl)ccc1NS(C)(=O)=O [Compound 140, (R)-1-(4-chlorothiazol-5-yl)ethyl (1-methyl-4-(6-methyl-5-(methylsulfonamido)pyridin-2-yl)-1H-1,2,3-triazol-5-yl)carbamate]"
14,0.312 µM,"Cc1nc(-c2nnn(C)c2NC(=O)O[C@H](C)c2cccc(F)c2F)ccc1NS(C)(=O)=O [Compound 87, (R)-1-(2,3-difluorophenyl)ethyl(1-methyl-4-(6-methyl-5-(methylsulfonamido)pyridin-2-yl)-1H-1,2,3-triazol-5-yl)carbamate]"
15,2.47 µM,"Cc1nc(-c2nnn(C)c2NC(=O)OC(C)c2cccnc2C(F)(F)F)ccc1NS(C)(=O)=O (stereo not drawn) [Compound 85, 1-(2-(trifluoromethyl)pyridin-3-yl)ethyl (1-methyl-4-(6-methyl-5-(methylsulfonamido)pyridin-2-yl)-1H-1,2,3-triazol-5-yl)carbamate]"
16,0.0906 µM,"Cc1nc(-c2nnn(C)c2NC(=O)O[C@@H](c2ccccc2F)C(F)F)ccc1NS(C)(=O)=O [Compound 54, (S)-2,2-difluoro-1-(2-fluorophenyl)ethyl (1-methyl-4-(6-methyl-5-(methylsulfonamido)pyridin-2-yl)-1H-1,2,3-triazol-5-yl)carbamate]"
